Assay results published in patent publication US20100240745A1, “METHOD OF TREATMENT OF INFLAMMATION IN HYPERTENSIVE PATIENTS” (NICOX S.A., priority 2009, published 2010).
Marks after values point to notes of the source that are not given here.

Test: 13-week double-blind, randomized clinical trial: office systolic blood pressure (SBP) in osteoarthritic patients with hypertension treated with renin-angiotensin system blockers
Format: in vivo, human
Conditions: for Difference in mean changes of SBP vs placebo / mean change in systolic blood pressure (SBP) vs baseline, mean ± SE / Difference in mean changes of SBP vs naproxen 500 mg: 13-week study; for mean change in systolic blood pressure (SBP) vs baseline, mean ± SE: osteoarthritic hypertensive patients on RAS blockers alone or with a diuretic; for blood pressure elevation / BP destabilization (result in words): osteoarthritic hypertensive patients treated with at least a renin-angiotensin system blocking agent
Method: Effects of 4-(nitrooxy)butyl(2S)-2-(6-methoxy-2-naphthyl)propanoate (naproxcinod) and naproxen on systolic blood pressure (SBP).
The effects of two twice daily drug regimens (375 mg bid and 750 mg bid) of 4-(nitrooxy)butyl(2S)-2-(6-methoxy-2-naphthyl)propanoate (naproxcinod) on systolic blood pressure (SBP) vs. naproxen and placebo were studied in a 13-week double-blind, randomized clinical trial involving 207 osteoarthritic patients and hypertension treated with renin-angiotensin system blockers alone or in combination with a diuretic.
Patients were sequentially randomized in a 1:1:1:1 ratio using a validated remote automated system to receive for the 13-week study treatment period one of 4 treatment groups: • naproxcinod 750 mg twice daily, • naproxcinod 375 mg twice daily, • naproxen 500 mg (equimolar dose of naproxcinod 750 mg) twice daily, or • placebo twice daily.
The office SBP was measured in a standardized fashion by mercury column or aneroid device in supine position, at rest, at baseline and 2, 6, and 13 weeks after study treatment initiation. SBP measurements were to be performed 2 to 4 hours post-morning dose.
The comparability of the patients in the 4 treatment groups was determined from the demographic data and baseline BP values.

Compound | Difference in mean changes of SBP vs placebo (500 mg twice daily) | mean change in systolic blood pressure (SBP) vs baseline, mean ± SE (500 mg twice daily) | Difference in mean changes of SBP vs naproxen 500 mg (375 mg twice daily) | Difference in mean changes of SBP vs placebo (375 mg twice daily) | mean change in systolic blood pressure (SBP) vs baseline, mean ± SE (375 mg twice daily) | Difference in mean changes of SBP vs naproxen 500 mg (750 mg twice daily) | Difference in mean changes of SBP vs placebo (750 mg twice daily) | mean change in systolic blood pressure (SBP) vs baseline, mean ± SE (750 mg twice daily) | blood pressure elevation / BP destabilization (result in words) | blood pressure elevation / BP destabilization (result in words) (listed as 4-(nitrooxy)butyl(2S)-2-(6-methoxy-2-naphthyl)propanoate)
COc1ccc2cc([C@H](C)C(=O)O)ccc2c1 [naproxen, reference compound] | 6.1** mmHg | 1.5 ± 1.9 mmHg |  |  |  |  |  |  |  | 
COc1ccc2cc([C@H](C)C(=O)OCCCCO[N+](=O)[O-])ccc2c1 [naproxcinod, 4-(nitrooxy)butyl(2S)-2-(6-methoxy-2-naphthyl)propanoate] |  |  | −4.2 mmHg | 1.9 mmHg | −2.7 ± 1.7 mmHg | −6.5 mmHg | −0.4* mmHg | −5.0 ± 1.7 mmHg | less BP destabilization compared to naproxen | does not induce blood pressure elevation
